# Laboratory results as given in ChEMBL document CHEMBL5046309, “Discovery of SHR5133, a Highly Potent and Novel HBV Capsid Assembly Modulator” (ACS Med Chem Lett, 2022).
# Active and inactive are the calls of the source. No cut-off for these calls is given here.
# Experiments:
# [1] = Clearance in Sprague-Dawley rat at 1 mg/kg, iv measured up to 24 hrs by LC-MS/MS analysis; type: ADME, organism-based; conditions: in vivo
# [2] = AUC(0 to 24 hrs) in Sprague-Dawley rat at 2 mg/kg, po measured up to 24 hrs by LC-MS/MS analysis; type: ADME, organism-based; parameters: route oral, dose 2 mg/kg, time <=24; conditions: in vivo
# HepG2 2.2.15 = experiment: Cytotoxicity against human HepG2.2.15 cells assessed as reduction in cell viability incubated for 72 hrs by cell titer-glo assay; type: functional
# [3] = Cmax in Sprague-Dawley rat at 2 mg/kg, po measured up to 24 hrs by LC-MS/MS analysis; type: ADME, organism-based; parameters: route oral, dose 2 mg/kg, time <=24; conditions: in vivo
# [4] = Half life in Sprague-Dawley rat at 2 mg/kg, po measured up to 24 hrs by LC-MS/MS analysis; type: ADME, organism-based; conditions: in vivo
# [5] = Microsomal stability in mouse liver microsome assessed as half life measured up to 24 hrs by LC-MS/MS analysis; type: ADME; conditions: liver microsomes
# [6] = Plasma protein binding in rat by LC-MS/MS analysis; type: ADME, cell-free; conditions: read-out: PPB (converted)
# [7] = Cmax in nude mouse at 10 mg/kg, po measured up to 24 hrs by LC-MS/MS analysis; type: ADME, organism-based; parameters: route oral, dose 10 mg/kg, time <=24; conditions: in vivo
# [8] = Half life in nude mouse at 10 mg/kg, po measured up to 24 hrs by LC-MS/MS analysis; type: ADME, organism-based; conditions: in vivo
# [9] = AUC(0 to 24 hrs) in Beagle dog at 0.5 mg/kg, po measured up to 24 hrs by LC-MS/MS analysis; type: ADME, organism-based, Canis lupus familiaris; parameters: route oral, dose 0.5 mg/kg, time <=24; conditions: in vivo
# [10] = Clearance in nude mouse at 1 mg/kg, iv measured up to 24 hrs by LC-MS/MS analysis; type: ADME, organism-based; conditions: in vivo
# [11] = AUC(0 to 24 hrs) in nude mouse at 100 mg/kg, po measured up to 24 hrs by LC-MS/MS analysis; type: ADME, organism-based; parameters: route oral, dose 100 mg/kg, time <=24; conditions: in vivo
# [12] = Plasma protein binding in dog by LC-MS/MS analysis; type: ADME, cell-free, Canis lupus familiaris; conditions: read-out: PPB (converted)
# Cytochrome P450 2D6 = Cytochrome P450 2D6 (Homo sapiens, UniProt P10635); experiment: Inhibition of recombinant human CYP2D6 by LC-MS/MS analysis; type: ADME
# Cytochrome P450 1A2 = biological target: T1, Cytochrome P450 1A2 (Homo sapiens, UniProt P05177); experiment: Inhibition of recombinant human CYP1A2 by LC-MS/MS analysis; type: ADME
# T1 sequence (P05177 whole entry): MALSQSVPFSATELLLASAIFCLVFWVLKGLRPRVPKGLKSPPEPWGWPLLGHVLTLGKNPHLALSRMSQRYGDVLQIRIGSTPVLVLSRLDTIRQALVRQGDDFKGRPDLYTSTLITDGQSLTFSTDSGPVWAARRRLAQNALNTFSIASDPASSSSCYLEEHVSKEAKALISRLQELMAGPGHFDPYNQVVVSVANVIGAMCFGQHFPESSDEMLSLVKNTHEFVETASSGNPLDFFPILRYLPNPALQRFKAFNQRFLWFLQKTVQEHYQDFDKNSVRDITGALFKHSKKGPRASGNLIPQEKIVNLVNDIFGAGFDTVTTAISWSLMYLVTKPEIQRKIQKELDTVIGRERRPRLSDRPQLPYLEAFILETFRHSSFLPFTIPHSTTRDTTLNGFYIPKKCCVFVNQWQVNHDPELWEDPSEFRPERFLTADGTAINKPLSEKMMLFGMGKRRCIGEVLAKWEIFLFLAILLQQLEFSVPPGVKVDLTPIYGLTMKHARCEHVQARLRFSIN
# [13] = Microsomal stability in dog liver microsome assessed as half life measured up to 24 hrs by LC-MS/MS analysis; type: ADME, Canis lupus familiaris; conditions: liver microsomes
# [14] = Apparent permeability of the compound across apical to basolateral side in […] measured up to 24 hrs by LC-MS/MS analysis; type: ADME, cell-based
# Hepatitis B virus [15] = experiment: Antiviral activity against HBV infected in C57BL/6 mouse assessed as reduction on HBsAg level at 3 to 30 mg/kg,po BID for 28 days by ELISA; type: functional, organism-based; conditions: dose 3-30 mg/kg, time 28.0 day
# Cytochrome P450 2C9 = Cytochrome P450 2C9 (Homo sapiens, UniProt P11712); experiment: Inhibition of recombinant human CYP2C9 by LC-MS/MS analysis; type: ADME
# [16] = Half life in nude mouse at 2 mg/kg, po measured up to 24 hrs by LC-MS/MS analysis; type: ADME, organism-based; conditions: in vivo
# [17] = Cmax in nude mouse at 100 mg/kg, po measured up to 24 hrs by LC-MS/MS analysis; type: ADME, organism-based; parameters: route oral, dose 100 mg/kg, time <=24; conditions: in vivo
# [18] = Plasma protein binding in mouse by LC-MS/MS analysis; type: ADME, cell-free; conditions: read-out: PPB (converted)
# [19] = AUC(0 to 24 hrs) in nude mouse at 10 mg/kg, po measured up to 24 hrs by LC-MS/MS analysis; type: ADME, organism-based; parameters: route oral, dose 10 mg/kg, time <=24; conditions: in vivo
# Cytochrome P450 3A4 [20] = biological target: T2, Cytochrome P450 3A4 (Homo sapiens, UniProt P08684); experiment: Inhibition of recombinant human CYP3A4 using midazolam as substrate by LC-MS/MS analysis; type: ADME
# [21] = Half life in nude mouse at 100 mg/kg, po measured up to 24 hrs by LC-MS/MS analysis; type: ADME, organism-based; conditions: in vivo
# [22] = Cmax in Beagle dog at 0.5 mg/kg, po measured up to 24 hrs by LC-MS/MS analysis; type: ADME, organism-based, Canis lupus familiaris; parameters: route oral, dose 0.5 mg/kg, time <=24; conditions: in vivo
# [23] = Cmax in nude mouse at 2 mg/kg, po measured up to 24 hrs by LC-MS/MS analysis; type: ADME, organism-based; parameters: route oral, dose 2 mg/kg, time <=24; conditions: in vivo
# [24] = biological target: Voltage-gated inwardly rectifying potassium channel KCNH2 (Homo sapiens, UniProt Q12809); experiment: Inhibition of human ERG by LC-MS/MS analysis; type: toxicity
# [25] = Plasma protein binding in human by LC-MS/MS analysis; type: ADME, cell-free; conditions: read-out: PPB (converted)
# [26] = Solubility of the compound in FaSSIF using amorphous form of sample by LC-MS/MS analysis; type: physicochemical
# [27] = Efflux ratio of apparent permeability across basolateral to apical side over apical to basolateral side in […] by LC-MS/MS analysis; type: ADME, cell-based
# [28] = Lipophilicity, logD of compound at pH 7.4 by LC-MS/MS analysis; type: physicochemical; conditions: buffer
# [29] = AUC(0 to 24 hrs) in nude mouse at 2 mg/kg, po measured up to 24 hrs by LC-MS/MS analysis; type: ADME, organism-based; parameters: route oral, dose 2 mg/kg, time <=24; conditions: in vivo
# Cytochrome P450 2C19 = Cytochrome P450 2C19 (Homo sapiens, UniProt P33261); experiment: Inhibition of recombinant human CYP2C19 by LC-MS/MS analysis; type: ADME
# [30] = Microsomal stability in human liver microsome assessed as half life measured up to 24 hrs by LC-MS/MS analysis; type: ADME; conditions: liver microsomes
# [31] = Clearance in Beagle dog at 1 mg/kg, iv measured up to 24 hrs by LC-MS/MS analysis; type: ADME, organism-based, Canis lupus familiaris; conditions: in vivo
# Cytochrome P450 3A4 [32] = biological target: T2, Cytochrome P450 3A4; experiment: Inhibition of recombinant human CYP3A4 using testosterone as substrate by LC-MS/MS analysis; type: ADME
# Hepatitis B virus [33] = experiment: Antiviral activity against HBV infected in C57BL/6 mouse assessed as reduction on HBeAg level at 3 to 30 mg/kg,po BID for 28 days by ELISA; type: functional, organism-based; conditions: dose 3-30 mg/kg, time 28.0 day
# Hepatitis B virus [34] = experiment: Antiviral activity against HBV infected in C57BL/6 mouse assessed as HBV DNA reduction at 3 to 30 mg/kg,po BID for 28 days by qPCR method; type: functional, organism-based; conditions: dose 3-30 mg/kg, time 28.0 day
# [35] = Solubility of the compound in phosphate buffer at pH 7.4 using amorphous form of sample by LC-MS/MS analysis; type: physicochemical
# [36] = Microsomal stability in rat liver microsome assessed as half life measured up to 24 hrs by LC-MS/MS analysis; type: ADME; conditions: liver microsomes
# [37] = Half life in Beagle dog at 0.5 mg/kg, po measured up to 24 hrs by LC-MS/MS analysis; type: ADME, organism-based, Canis lupus familiaris; conditions: in vivo
# [38] = Apparent permeability of the compound across basolateral to apical side in […] measured up to 24 hrs by LC-MS/MS analysis; type: ADME, cell-based
# T2 sequence (P08684 whole entry): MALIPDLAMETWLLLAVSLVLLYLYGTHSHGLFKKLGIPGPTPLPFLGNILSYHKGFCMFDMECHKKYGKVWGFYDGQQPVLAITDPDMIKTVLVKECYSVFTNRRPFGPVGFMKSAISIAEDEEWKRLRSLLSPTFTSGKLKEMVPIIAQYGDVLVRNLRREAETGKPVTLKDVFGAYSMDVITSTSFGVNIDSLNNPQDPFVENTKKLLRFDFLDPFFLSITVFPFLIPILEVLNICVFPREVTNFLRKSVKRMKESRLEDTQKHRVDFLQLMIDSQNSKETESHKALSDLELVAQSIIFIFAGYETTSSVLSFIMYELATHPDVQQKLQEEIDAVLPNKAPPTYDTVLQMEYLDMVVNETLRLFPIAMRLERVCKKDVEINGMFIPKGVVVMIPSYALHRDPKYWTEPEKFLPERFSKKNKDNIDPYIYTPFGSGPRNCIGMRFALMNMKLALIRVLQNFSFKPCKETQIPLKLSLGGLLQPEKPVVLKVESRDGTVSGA
# Cytochrome P450 2D6, sequence (P10635 whole entry): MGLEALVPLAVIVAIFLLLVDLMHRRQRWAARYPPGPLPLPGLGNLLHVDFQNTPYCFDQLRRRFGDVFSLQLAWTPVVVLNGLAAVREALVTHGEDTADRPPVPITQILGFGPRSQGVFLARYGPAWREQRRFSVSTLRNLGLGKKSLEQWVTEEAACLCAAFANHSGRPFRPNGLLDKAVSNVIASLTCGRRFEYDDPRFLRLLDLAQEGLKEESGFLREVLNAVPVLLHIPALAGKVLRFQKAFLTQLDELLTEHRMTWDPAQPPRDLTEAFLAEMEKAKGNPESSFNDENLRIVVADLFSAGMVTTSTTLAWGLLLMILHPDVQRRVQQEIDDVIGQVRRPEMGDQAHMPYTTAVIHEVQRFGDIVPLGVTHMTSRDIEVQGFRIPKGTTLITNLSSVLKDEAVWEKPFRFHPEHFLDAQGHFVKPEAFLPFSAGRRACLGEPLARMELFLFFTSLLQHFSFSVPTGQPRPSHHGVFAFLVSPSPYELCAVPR
# Voltage-gated inwardly rectifying potassium channel KCNH2, sequence (Q12809 whole entry): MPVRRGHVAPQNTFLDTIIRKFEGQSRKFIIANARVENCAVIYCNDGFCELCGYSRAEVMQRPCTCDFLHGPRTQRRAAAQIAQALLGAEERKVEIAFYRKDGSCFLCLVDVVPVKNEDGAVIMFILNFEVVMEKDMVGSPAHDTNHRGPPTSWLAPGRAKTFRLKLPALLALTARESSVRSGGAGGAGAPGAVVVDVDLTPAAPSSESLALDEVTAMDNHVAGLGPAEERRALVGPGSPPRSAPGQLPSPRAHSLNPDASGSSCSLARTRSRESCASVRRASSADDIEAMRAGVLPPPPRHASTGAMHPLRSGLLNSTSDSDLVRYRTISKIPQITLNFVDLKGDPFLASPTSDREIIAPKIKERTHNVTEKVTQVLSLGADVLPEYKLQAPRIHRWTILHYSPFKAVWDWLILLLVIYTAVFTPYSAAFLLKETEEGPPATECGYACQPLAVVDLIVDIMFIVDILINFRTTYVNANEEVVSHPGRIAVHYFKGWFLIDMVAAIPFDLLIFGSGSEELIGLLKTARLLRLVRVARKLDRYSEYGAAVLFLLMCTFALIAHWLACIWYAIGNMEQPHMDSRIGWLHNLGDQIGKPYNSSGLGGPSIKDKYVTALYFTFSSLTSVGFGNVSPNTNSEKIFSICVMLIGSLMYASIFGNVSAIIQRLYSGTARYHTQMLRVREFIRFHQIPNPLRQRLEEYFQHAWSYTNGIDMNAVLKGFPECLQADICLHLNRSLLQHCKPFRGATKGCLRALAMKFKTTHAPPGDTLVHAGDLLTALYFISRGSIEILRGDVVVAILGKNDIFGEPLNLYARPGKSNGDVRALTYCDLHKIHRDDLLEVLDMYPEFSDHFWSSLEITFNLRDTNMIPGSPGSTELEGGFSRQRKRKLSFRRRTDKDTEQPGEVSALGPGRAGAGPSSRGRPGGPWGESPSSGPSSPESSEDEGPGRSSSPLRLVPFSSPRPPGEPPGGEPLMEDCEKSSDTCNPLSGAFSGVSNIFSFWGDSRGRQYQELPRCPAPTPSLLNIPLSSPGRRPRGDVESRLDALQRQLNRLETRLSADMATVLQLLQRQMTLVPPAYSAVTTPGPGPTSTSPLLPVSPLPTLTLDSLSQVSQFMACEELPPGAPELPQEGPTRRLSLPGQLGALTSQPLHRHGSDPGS
# Cytochrome P450 2C19, sequence (P33261 whole entry): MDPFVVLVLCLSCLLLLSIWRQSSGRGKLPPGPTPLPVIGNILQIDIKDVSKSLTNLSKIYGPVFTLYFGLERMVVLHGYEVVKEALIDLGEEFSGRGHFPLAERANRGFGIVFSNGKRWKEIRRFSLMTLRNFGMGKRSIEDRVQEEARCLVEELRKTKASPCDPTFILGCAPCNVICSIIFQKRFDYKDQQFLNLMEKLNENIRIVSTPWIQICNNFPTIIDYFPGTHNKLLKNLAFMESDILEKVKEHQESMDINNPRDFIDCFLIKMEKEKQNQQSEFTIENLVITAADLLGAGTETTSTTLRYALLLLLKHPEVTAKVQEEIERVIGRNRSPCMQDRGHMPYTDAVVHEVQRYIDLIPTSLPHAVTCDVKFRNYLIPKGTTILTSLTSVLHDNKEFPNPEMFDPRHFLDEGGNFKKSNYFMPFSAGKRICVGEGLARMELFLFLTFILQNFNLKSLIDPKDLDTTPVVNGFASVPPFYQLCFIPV
# Cytochrome P450 2C9, sequence (P11712 whole entry): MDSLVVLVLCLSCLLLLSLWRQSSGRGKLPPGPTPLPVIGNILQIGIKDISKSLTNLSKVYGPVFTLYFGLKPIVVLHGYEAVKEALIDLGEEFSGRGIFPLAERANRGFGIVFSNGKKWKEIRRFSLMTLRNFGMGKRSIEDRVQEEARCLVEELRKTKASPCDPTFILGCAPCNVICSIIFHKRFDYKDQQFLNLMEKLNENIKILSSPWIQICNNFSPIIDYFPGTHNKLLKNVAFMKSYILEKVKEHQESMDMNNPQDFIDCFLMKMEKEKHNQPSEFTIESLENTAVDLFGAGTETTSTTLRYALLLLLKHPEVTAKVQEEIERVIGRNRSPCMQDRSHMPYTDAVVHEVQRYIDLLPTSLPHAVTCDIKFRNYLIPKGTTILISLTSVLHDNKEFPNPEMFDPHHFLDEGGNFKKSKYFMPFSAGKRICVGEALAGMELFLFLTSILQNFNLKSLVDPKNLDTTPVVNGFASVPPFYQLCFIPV
compound,measurement,setting,value
Cc1cc(NC(=O)N2Cc3c(C(=O)N[C@H](C)C(F)(F)F)ncn3C[C@@H]2C)ccc1F,clearance,[1],26.6 mL/min/kg
same,AUC,[2],2.12 µg/mL/h
same,CC50,HepG2 2.2.15,> 100 µM
same,Cmax,[3],492 ng/mL
same,half-life,[4],3.87 h
C[C@H]1Cn2ncc(C(=O)N[C@H](C)C(F)(F)F)c2CN1C(=O)Nc1ccc(F)c(F)c1,CC50,HepG2 2.2.15,> 100 µM
C[C@H]1Cn2cnc(C(=O)N[C@H](C)C(F)(F)F)c2CN1C(=O)Nc1ccc(F)c(C#N)c1,half-life,[5],> 2 h
same,fraction unbound,[6],0.244
same,Cmax,[7],4600 ng/mL
same,clearance,[1],4.5 mL/min/kg
same,half-life,[8],3.38 h
same,AUC,[9],9.01 µg/mL/h
same,clearance,[10],5.3 mL/min/kg
same,AUC,[11],28.9 µg/mL/h
same,fraction unbound,[12],0.23
same,IC50,Cytochrome P450 2D6,> 30 µM
same,IC50,Cytochrome P450 1A2,> 30 µM
same,half-life,[13],> 2.32 h
same,Papp A→B at 24 h,[14],10.9 ×10⁻⁶ cm/s
same,Activity,Hepatitis B virus [15],inactive
same,IC50,Cytochrome P450 2C9,> 30 µM
same,half-life,[16],5.04 h
same,Cmax,[17],22200 ng/mL
same,fraction unbound,[18],0.12
same,AUC,[19],24.4 µg/mL/h
same,IC50,Cytochrome P450 3A4 [20],> 30 µM
same,half-life,[21],4.97 h
same,Cmax,[22],559 ng/mL
same,Cmax,[23],1120 ng/mL
same,IC50,[24],> 30 µM
same,AUC,[2],7.98 µg/mL/h
same,fraction unbound,[25],0.113
same,solubility,[26],1640 µM
same,efflux ratio,[27],4.73
same,logD,[28],2.27
same,CC50,HepG2 2.2.15,> 100 µM
same,AUC,[29],7.16 µg/mL/h
same,IC50,Cytochrome P450 2C19,> 30 µM
same,half-life,[30],> 2.32 h
same,clearance,[31],1.1 mL/min/kg
same,IC50,Cytochrome P450 3A4 [32],> 30 µM
same,Cmax,[3],597 ng/mL
same,Activity,Hepatitis B virus [33],inactive
same,Activity,Hepatitis B virus [34],Dose-Dependent Effect
same,solubility,[35],106 µM
same,half-life,[36],> 1.12 h
same,half-life,[37],30.8 h
same,Papp B→A at 24 h,[38],51.4 ×10⁻⁶ cm/s
C[C@H]1Cn2ncc(C(=O)N[C@H](C)C(F)(F)F)c2CN1C(=O)Nc1ccc(F)c(C#N)c1,CC50,HepG2 2.2.15,> 100 µM
C[C@@H]1Cn2cnc(C(=O)N[C@H](C)C(F)(F)F)c2CN1C(=O)Nc1ccc(F)c(F)c1,CC50,HepG2 2.2.15,> 100 µM
C[C@H]1Cn2ncc(C(=O)N[C@H](C)C(F)(F)F)c2CN1C(=O)Nc1cc(F)nc(F)c1,CC50,HepG2 2.2.15,> 100 µM
